Where “and” joins values, the source holds several entries; their conditions need not be identical. Equal entries are not always repeated. Where two headings read alike, the source gives them in different places.
Legend:
PaOctβ2R-HA [1] = assay: Antagonist inhibition of octopamine-activated PaOctβ2R-HA (cAMP via CNG channel / Fluo-4); type: cell-based, Periplaneta americana; conditions: 1 × 10^−9 M octopamine; for Maximal Inhibition of octopamine-activated PaOctβ2R-HA activity: 1 × 10^−4 M IBMX
Procedure: (§1) The reduction of cellular cAMP production, monitored as a decrease in Fluo-4 fluorescence (see Section 4.9), was quantified and normalized to the value obtained without adding antagonists (=100%). Normalized data were used to construct inhibitor concentration-response curves.
(§2) Ligand concentrations that led to half-maximal inhibition of PaOctβ2R-HA (IC50) were determined from the concentration-response curves.
(§3) A stably transfected cell line was established to examine PaOctβ2R-HA receptor activity by Ca^2+ imaging. Control measurements were performed in the parental (flpTM) cell line. Changes in [cAMP]i were registered indirectly via co-expressed CNG channels that are opened by cAMP and cause an influx of extracellular Ca^2+ [18, 26, 91]. Changes in [Ca^2+]i were monitored with the Ca^2+-sensitive fluorescent dye Fluo-4. Cells were grown in 96-well dishes to a density of approximately 2 × 10^4 cells per well and were loaded at room temperature with Fluo-4 AM as described previously. After 90 min, the loading solution was substituted for dye-free extracellular solution (ECS; 120 mM NaCl, 5 mM KCl, 2 mM MgCl2, 2 mM CaCl2, 10 mM HEPES, and 10 mM glucose, pH 7.4 (NaOH)) containing 100 µM 3-isobutyl-1-methylxanthine (IBMX; Sigma-Aldrich/Merck, Darmstadt, Germany) as an inhibitor of cell-endogenous phosphodiesterases. The plate was transferred into a fluorescence reader (FLUOstar Omega, BMG Labtech, Ortenberg, Germany) to monitor Fluo-4 fluorescence. The excitation wavelength was 485 nm. Fluorescence emission was detected at 520 nm. Concentration series of various biogenic amines and synthetic receptor ligands were added once Fluo-4 fluorescence had reached a stable value in each well. The changes in Fluo-4 fluorescence were recorded automatically. Concentration-response curves were established from at least three independent experiments. Data points were derived from four-fold or eightfold determination.

(UniProt Z9G3U5DLY1) [2] = assay: as above; type: cell-based, Periplaneta americana; conditions: 1 × 10^−9 M octopamine, 1 × 10^−4 M IBMX
Procedure: as §1, §2, §3

PaOctβ2R-HA [3] = assay: Antagonist inhibition of tyramine-activated PaOctβ2R-HA (cAMP via CNG channel / Fluo-4); type: cell-based, Periplaneta americana; conditions: 1 × 10^−7 M tyramine; for Maximal Inhibition of tyramine-activated PaOctβ2R-HA activity: 1 × 10^−4 M IBMX
Procedure: as §1, §2, §3

(UniProt Z9G3U5DLY1) [4] = assay: as above; type: cell-based, Periplaneta americana; conditions: 1 × 10^−7 M tyramine, 1 × 10^−4 M IBMX
Procedure: as §1, §2, §3

PaOctβ2R-HA [5] = assay: Agonist-evoked cAMP production in PaOctβ2R-HA-expressing flpTM cells (CNG channel / Fluo-4 Ca2+ imaging); type: cell-based, Periplaneta americana; conditions: for increase in [cAMP]i in PaOctβ2R-HA-expressing cells: biogenic amines at 0.1 and 1 µM; for increase in [cAMP]i in PaOctβ2R-HA-expressing cells / concentration at which the concentration-response curve saturated: 100 µM IBMX; for concentration at which the concentration-response curve saturated: flpTM + PaOctβ2R-HA cells
Source text: (§4) These insect receptors are preferentially activated by octopamine and to a certain extent by tyramine as well. In a first series of experiments, we thus examined the ability of different biogenic amines, i.e., octopamine, tyramine, dopamine, histamine, and serotonin, to evoke PaOctβ2R-HA-dependent cAMP production in receptor-expressing as well as in the parental (flpTM) cell line. Increasing [cAMP]i cause opening of the CNG channels and influx of extracellular Ca^2+ which was detected by the Ca^2+-sensitive dye FLUO-4.
(§5) In a next step, concentration series of octopamine and tyramine ranging from 10^−12 M to 10^−7 M for octopamine and 10^−11 M to 10^−6 M for tyramine were applied to the cell lines. The fluorescence signals were normalized to values obtained in flpTM + PaOctβ2R-HA cells with the highest ligand concentration (=100%) and used to calculate concentration response curves for the receptor (Figure 6; Table 1).
(§6) Cells were transfected with 10 µg of the pcPaOctβ2R-HA construct by a modified calcium phosphate method following a previously established protocol. Transfected cells were selected in the presence of the antibiotics G418 (1 mg/mL) and hygromycin (100 µg/mL).
as §3

(UniProt Z9G3U5DLY1) [6] = assay: as above; type: cell-based, Periplaneta americana; conditions: 100 µM IBMX
Source text: as §4, §5, §6, §3

flpTM cells = assay: Control measurements in parental (non-transfected) flpTM cells (cAMP via CNG channel / Fluo-4); type: cell-based, human; conditions: concentration series of octopamine or tyramine; 100 µM IBMX
Source text: as §4, with “FLUO-4. No stimulation of adenylyl cyclase activity was recorded in flpTM cells when incubated with 0.1 or 1 µM concentrations of biogenic amines (Figure 5A). […]” for “FLUO-4.”
A stably transfected cell line was established to examine PaOctβ2R-HA receptor activity by Ca^2+ imaging. […] Changes in [Ca^2+]i were monitored with the Ca^2+-sensitive fluorescent dye Fluo-4. […] The plate was transferred into a fluorescence reader (FLUOstar Omega, BMG Labtech, Ortenberg, Germany) to monitor Fluo-4 fluorescence. […] Fluorescence emission was detected at 520 nm. Concentration series of various biogenic amines and synthetic receptor ligands were added once Fluo-4 fluorescence had reached a stable value in each well. The changes in Fluo-4 fluorescence were recorded automatically. […]

[7] = read-out: IC50, half-maximal inhibition of octopamine-activated PaOctβ2R-HA
[8] = read-out: pIC50 ± SD, octopamine-activated PaOctβ2R-HA (converted)
[9] = read-out: IC50, half-maximal inhibition of tyramine-activated PaOctβ2R-HA
[10] = read-out: pIC50 ± SD, tyramine-activated PaOctβ2R-HA (converted)
[11] = mean of n = 5 experiments, flpTM + PaOctβ2R-HA cells, read-out: EC50, mean value for half-maximal stimulation of PaOctβ2R-HA
[12] = mean of n = 5 experiments, flpTM + PaOctβ2R-HA cells, read-out: pEC50 ± SD, half-maximal stimulation of PaOctβ2R-HA (converted)
[13] = single representative eight-fold determination, read-out: EC50, half maximal activation of PaOctβ2R-HA (representative experiment, Figure 6)

NC1=NCC2c3ccccc3Cc3ccccc3N12 (centres unmarked) [epinastine]
Maximal Inhibition of octopamine-activated PaOctβ2R-HA activity (PaOctβ2R-HA [1]): 100% | IC50 ((UniProt Z9G3U5DLY1) [2]; [7]): ~12 nM and 12 nM | IC50 ((UniProt Z9G3U5DLY1) [2]; [8]): 11.4 nM | Maximal Inhibition of tyramine-activated PaOctβ2R-HA activity (PaOctβ2R-HA [3]): 100% | IC50 ((UniProt Z9G3U5DLY1) [4]; [9]): ~13 nM and 13 nM | IC50 ((UniProt Z9G3U5DLY1) [4]; [10]): 11.2 nM

NCC(O)c1ccc(O)cc1 (centres unmarked) [octopamine]
increase in [cAMP]i in PaOctβ2R-HA-expressing cells (PaOctβ2R-HA [5]): showed increasing [cAMP]i | concentration at which the concentration-response curve saturated (PaOctβ2R-HA [5]): ≥ 10^−9 M | preference (selectivity) of PaOctβ2R-HA for octopamine over tyramine (PaOctβ2R-HA [5]; octopamine vs tyramine potency): 100 fold and ~ 100 fold | EC50 ((UniProt Z9G3U5DLY1) [6]; [11]): 0.467 nM | EC50 ((UniProt Z9G3U5DLY1) [6]; [12]): 0.447 nM | EC50 ((UniProt Z9G3U5DLY1) [6]; [13]): 0.297 nM | change in the fluorescence signal in non-transfected flpTM cells (flpTM cells): no change in the fluorescence signal was observed

CCCN(CCC)C1CCc2cccc(O)c2C1 (centres unmarked) [8-OH-DPAT, 8-hydroxy-2-(dipropylamino)tetralin]
effect on octopamine-stimulated PaOctβ2R-HA activity (in words) (PaOctβ2R-HA [1]): did not impair | effect on tyramine-stimulated PaOctβ2R-HA activity (in words) (PaOctβ2R-HA [3]): did not impair

NCCc1ccc(O)cc1 [tyramine]
increase in [cAMP]i in PaOctβ2R-HA-expressing cells (PaOctβ2R-HA [5]): showed increasing [cAMP]i | concentration at which the concentration-response curve saturated (PaOctβ2R-HA [5]): ≥ 10^−7 M | EC50 ((UniProt Z9G3U5DLY1) [6]; [11]): 43 nM | EC50 ((UniProt Z9G3U5DLY1) [6]; [12]): 40.7 nM | EC50 ((UniProt Z9G3U5DLY1) [6]; [13]): 36.8 nM | change in the fluorescence signal in non-transfected flpTM cells (flpTM cells): no change in the fluorescence signal was observed

Cc1ccc(N(CC2=NCCN2)c2cccc(O)c2)cc1 [phentolamine]
Maximal Inhibition of octopamine-activated PaOctβ2R-HA activity (PaOctβ2R-HA [1]): 100% | IC50 ((UniProt Z9G3U5DLY1) [2]; [7]): 257 nM | IC50 ((UniProt Z9G3U5DLY1) [2]; [8]): 247 nM | Maximal Inhibition of tyramine-activated PaOctβ2R-HA activity (PaOctβ2R-HA [3]): 100% | IC50 ((UniProt Z9G3U5DLY1) [4]; [9]): 256 nM | IC50 ((UniProt Z9G3U5DLY1) [4]; [10]): 255 nM

O=C(c1ccc(F)cc1)C1CCN(CCn2c(=O)[nH]c3ccccc3c2=O)CC1 [ketanserin]
Maximal Inhibition of octopamine-activated PaOctβ2R-HA activity (PaOctβ2R-HA [1]): 80% | Maximal Inhibition of octopamine-activated PaOctβ2R-HA activity (PaOctβ2R-HA [1]; listed as Ketanserin): approximately 80% | IC50 ((UniProt Z9G3U5DLY1) [2]; [7]): 5120 nM | IC50 ((UniProt Z9G3U5DLY1) [2]; [8]): 5120 nM | Maximal Inhibition of tyramine-activated PaOctβ2R-HA activity (PaOctβ2R-HA [3]): 50% | IC50 ((UniProt Z9G3U5DLY1) [4]; [9]): 1680 nM | IC50 ((UniProt Z9G3U5DLY1) [4]; [10]): 1710 nM

NCCc1c[nH]cn1 [histamine]
increase in [cAMP]i in PaOctβ2R-HA-expressing cells (PaOctβ2R-HA [5]): Neither dopamine, histamine nor serotonin caused an increase in [cAMP]i

COc1ccc2[nH]cc(CCN)c2c1 [5-MT, 5-methoxytryptamine]
effect on octopamine-stimulated PaOctβ2R-HA activity (in words) (PaOctβ2R-HA [1]): did not impair | effect on tyramine-stimulated PaOctβ2R-HA activity (in words) (PaOctβ2R-HA [3]): did not impair

NCCc1c[nH]c2ccc(O)cc12 [serotonin, 5-hydroxytryptamine]
increase in [cAMP]i in PaOctβ2R-HA-expressing cells (PaOctβ2R-HA [5]): Neither dopamine, histamine nor serotonin caused an increase in [cAMP]i

NCCc1ccc(O)c(O)c1 [dopamine]
increase in [cAMP]i in PaOctβ2R-HA-expressing cells (PaOctβ2R-HA [5]): Neither dopamine, histamine nor serotonin caused an increase in [cAMP]i

COC(=O)[C@@H]1[C@H]2C[C@H]3c4[nH]c5ccccc5c4CCN3C[C@@H]2CC[C@@H]1O [yohimbine]
effect on octopamine-stimulated PaOctβ2R-HA activity (in words) (PaOctβ2R-HA [1]): did not impair | effect on tyramine-stimulated PaOctβ2R-HA activity (in words) (PaOctβ2R-HA [3]): did not impair
